ChEMBL document CHEMBL1127229, “New non-peptide angiotensin II receptor antagonists. 1: structure - activity relationships of a series of a series of 2(1H)-pyridinones” (1994)

Tests used:
Format in all cases: functional
[1] = tested on: Rattus norvegicus; experiment: In vivo potency determined for AII-induced pressor response in normotensive rats, iv administration; settings: read-out: ID50 (the source's name)
[2] = tested on: Rattus norvegicus; experiment: Tested for lowering of Blood pressure in spontaneous hypertensive rat at a dose of 10mg/kg, po at 6 hr.
[3] = tested on: Rattus norvegicus; experiment: In vivo potency determined for AII-induced pressor response in normotensive rats, iv; settings: read-out: ID50 (the source's name)

Which results are given for `CCCCc1cc(O)cc(=O)n1Cc1ccc(-c2ccccc2-c2nn[nH]n2)cc1`?
ED50 [1]: 0.38 mg/kg; BP decrease [2]: 36%

With `CCCc1cc(CO)cc(=O)n1Cc1ccc(-c2ccccc2-c2nn[nH]n2)cc1` as the molecule, how does the ED50 [1] read?
Its ED50 is 0.3 mg/kg.

`CCc1cc(O)cc(=O)n1Cc1ccc(-c2ccccc2-c2nn[nH]n2)cc1` was tested. Which ED50 [1] did it give?
The ED50 was 0.084 mg/kg.

For `CCCc1cc(OCc2cccnc2)cc(=O)n1Cc1ccc(-c2ccccc2-c2nn[nH]n2)cc1`, which ED50 [1] is on record?
The ED50 was 0.72 mg/kg.

With `CCCc1cccc(=O)n1Cc1ccc(-c2ccccc2-c2nn[nH]n2)cc1` as the molecule, how does the ED50 [1] read?
The ED50 was 1.1 mg/kg.

Which ED50 [1] does the source give for `CCCc1cc(OC)cc(=O)n1Cc1ccc(-c2ccccc2-c2nn[nH]n2)cc1` here?
Its ED50 is 0.24 mg/kg.

`CCCc1cc(C(=O)O)cc(=O)n1Cc1ccc(-c2ccccc2-c2nn[nH]n2)cc1` was tested. Which ED50 [1] did it give?
Its ED50 is 0.078 mg/kg.

Which ED50 [1] does the source give for `CCCCc1cc(O)c([N+](=O)[O-])c(=O)n1Cc1ccc(-c2ccccc2-c2nn[nH]n2)cc1` here?
The ED50 was 0.58 mg/kg.

How did the ED50 [1] turn out when `CCCc1cc(S)cc(=O)n1Cc1ccc(-c2ccccc2-c2nn[nH]n2)cc1` was run?
The ED50 was 0.017 mg/kg.

Which ED50 [1] does the source give for `CCCc1cc(C(=O)NCCN(C)C)cc(=O)n1Cc1ccc(-c2ccccc2-c2nn[nH]n2)cc1` here?
Its ED50 is 0.18 mg/kg.

Which ED50 [3] does the source give for `CCCc1cc(N)c([N+](=O)[O-])c(=O)n1Cc1ccc(-c2ccccc2-c2nn[nH]n2)cc1` here?
The ED50 was 4.8 mg/kg.

With `CCCc1cc(O)cc(=O)n1Cc1ccc(-c2ccccc2-c2nn[nH]n2)cc1` as the molecule, how does the ED50 [1] read?
Its ED50 is 0.048 mg/kg.

`CCCc1cc(SC)cc(=O)n1Cc1ccc(-c2ccccc2-c2nn[nH]n2)cc1` was tested. Which ED50 [1] did it give?
Its ED50 is 0.28 mg/kg.

With `CCCCc1nc(Cl)c(CO)n1Cc1ccc(-c2ccccc2-c2nnn[n-]2)cc1.[K+]` [LOSARTAN POTASSIUM] as the molecule, how does the ED50 [1] read?
The ED50 was 1.2 mg/kg.

`CCCc1cc(O)c(C)c(=O)n1Cc1ccc(-c2ccccc2-c2nn[nH]n2)cc1` was tested. Which ED50 [1] did it give?
The ED50 was 0.027 mg/kg.
